# US11723894B2, “Combination product for the treatment of neurological and/or psychiatric disorders” (Consejo Superior de Investigaciones Cientificas (CSIC), priority 2017, dated 2023)
# How the values were obtained:
# microglial cells = assay: LPS-induced nitrite production (Griess) in primary microglial cultures; type: cell-based, rat; details: microglia
# Description: Example 8: DMT, DET, DPT and 5-MeO-DMT administration in vitro prevents inflammation in rat primary glial cells. […] Rat primary glial cell cultures were prepared from the cerebral cortex of 3 day old rats which were dissected, dissociated, and incubated with 0.25% trypsin/EDTA at 37° C. for 1 h. After centrifugation, the pellet was washed three times with HBSS (Gibco) and the cells were plated in poly-D-lysine (20 μg/mL) pretreated flasks (75 cm2). After 7-10 days, the flasks were agitated in an orbital shaker for 4 h at 230 rpm at 37° C. and non-adherent microglial cells were isolated and plated. Then Dulbecco's Modified Eagle's Medium (DMEM) was added to the flasks, which were agitated in a horizontal shaker at 260 rpm at 37° C. After overnight agitation, the supernatant (oligodendrocytes and some remaining microglial cells) was removed, and astrocytes (adherent cells) were collected. The purity of the cultures was >95%, as determined by immunofluorescence analysis using an anti-glial fibrillary acidic protein (GFAP; clone G-A-5; Sigma-Aldrich) antibody to identify astrocytes, and an anti-Iba1 (Wako Catalog No. 019-19741) antibody to identify microglial cells. On attaining semiconfluence, cells were administered each of the test tryptamines at 1 μM or with the combination test tryptamine+Ritanserin (Rit at 1 μM) 2 h before exposure to lipopolysaccharide (LPS, 10 μg/mL; Sigma-Aldrich) and kept in the presence of each drug or drug combination for 24 h. In combination studies, Rit was added to medium 1h before administration of the corresponding tryptamine. Vehicle-treated cultures were used as a control. After the 24 h drug exposure period, cultures were tested to assess nitrite release. To quantify nitrite concentrations in culture medium, supernatants of glial cultures were collected and mixed with an equal volume of Griess reagent (Sigma-Aldrich). Samples were then incubated at room temperature for 15 min and absorbance was measured at 540 nm on a microplate reader. Results are expressed as the mean±SEM of six replications in three different experiments
# [1] = system: dopaminergic neurons of the Substantia nigra pars compacta; assay: 6-OHDA in vivo model of Parkinson's Disease (injection into Substantia nigra pars compacta); set-up: species or system C57BL/6 mice; details: 0.1 μg DMT co-injected with 5 μg 6-OHDA into SNpc, 3 weeks
# Description: Example 10: DMT administration prevents dopaminergic cell death in a in vivo model of Parkinson's disease. Adult male C57BL/6 mice (8-12 weeks old) were used in this study. Animals were properly anaesthetized and placed in a stereotaxic apparatus (Kopf Instruments, CA). 6-OHDA (5 μg in […] PBS) was injected into the right side of the Substantia nigra pars compacta (SNpc) (coordinates from Bregma: posterior −3.2 mm; lateral +2.0 mm; ventral: +4.7 mm, according to the atlas of Paxinos and Franklin, The Mouse Brain in Stereotaxic Coordinates. 4. San Diego: Academic Press; 2012). Control animals of the same age were injected with PBS. A third group received an injection with 6-OHDA (5 μg) combined with DMT (0.1 μg) in […] PBS. Mice were then housed individually to recover and sacrificed 3 weeks later. At this point animals were anaesthetized and perfused transcardially with a 4% paraformaldehyde solution. The brains were removed, postfixed in the same solution at 4° C. overnight, cryoprotected in 20% sucrose, frozen, and 30 μm coronal sections were obtained in a cryostat. Free-floating sections were processed for double fluorescent immunohistochemistry. […] Neuronal integrity and specifically dopaminergic cell death was assessed by counting the percentage of TH^+ cells in the SNpc following a stereological approach. […] Images were analyzed using computer-assisted image analysis software (Soft Imaging System Corporation, Lakewood, Colo.). Results were expressed as the percentage of dopaminergic cell loss in the SNpc.
# [2] = system: subgranular zone of the hippocampus; assay: Long-term (21 days) in vivo neurogenesis in the subgranular zone of the hippocampus (BrdU/NeuN, BrdU/DCX); set-up: species or system C57BL/6 mice
# Description: Adult male C57BL/6 mice (obtained from Charles River Labs, Barcelona, Spain) were injected every other day for 3 weeks with DMT (0.1 μg/animal), alone or in combination with the selective Sigma-1 BD1063 antagonist (BD, 0.2 μg/animal, Sigma, Catalog number SML0276), the mixed 5-HT2A/1A receptor antagonist methiothepin (Met, 0.2 μg/animal, Sigma, Catalog number M149), or the selective 5-HT1A receptor antagonist WAY100635 (WAY, 0.2 μg/animal, ABCAM catalog number ab120550). On day 1 of treatment, animals were intraperitoneally injected with the proliferation marker 5-bromo-2-deoxyuridine (BrdU, 50 mg/kg, Sigma, Catalog number B5002) and sacrificed on day 21. Following anesthesia, the animals were perfused transcardially with 4% paraformaldehyde, and the brains obtained and post-fixed in the same solution at 4-8° C. overnight. They were subsequently cryoprotected, frozen, and finally cut into 30 μm coronal sections in a cryostat. Free-floating sections were immunostained using immunofluorescence analysis. For BrdU detection, samples were first incubated with 2 M HCl for 30 minutes at 37° C. before blocking 1 hour in PBS containing 5% normal serum, 0.1 M lysine, and 0.1% Triton X-100. Sections were then incubated with anti-BrdU mouse monoclonal antibody (DAKO, Barcelona, Spain, Catalog number M0744) combined with a neuronal marker, anti-neuN rabbit antibody (Abcam, Cambridge, UK. Catalog number ABN78) or an anti-double courtin (DCX) goat antibody (Santa Cruz Biotech. USA) at 4° C. overnight, washed three times and incubated with Alexa Fluor-488 goat anti-mouse and Alexa 647-goat anti-rabbit or -horse anti-goat secondary antibodies (Molecular Probes, Madrid, Spain), respectively, for 1 hour at room temperature. After rinses, sections were mounted with Vectashield.
structure (smiles),measurement,setting,value
"CN(C)CCc1c[nH]c2ccccc12 [DMT, N,N-dimethyltryptamine]",reduction of LPS-induced nitrite in the presence of Rit,"microglial cells; Rit 1 μM 1 h before tryptamine 1 μM, then LPS 10 μg/mL 24 h",maintained
same,LPS-induced nitrite increases,"microglial cells; tryptamine 1 μM before LPS 10 μg/mL, 24 h, vs LPS alone",significantly reduced
same,average percentage of dopaminergic cell loss in the SNpc,[1],10%
same,decrease in dopaminergic neurons and increase in activated astroglial and microglial cells (images),[1],virtually absent
same,double BrdU-NeuN stained cells (new neurons),"[2]; DMT 0.1 μg/animal every other day for 3 weeks, sacrificed day 21",increase
same,number of newly generated neurons as compared to basal,"[2]; FIG. 6 legend, printed as after 5 days of DMT administration",doubled
